Measured values published in paper PMC9077138, “An investigation on 3-acetyl-7-methoxy-coumarin Schiff bases and their Ru(II) metallates with potent antiproliferative activity and enhanced LDH and NO release” (RSC Advances, 2018).

Columns and labels:
[1] = system: human breast cancer cell line MCF-7; test: MTT cytotoxicity assay; format: cell-based; conditions: MTT, 48 h; read-out: IC50 values MCF-7
Description: (§1) The DNA/protein binding studies, antioxidant and antimicrobial studies had shown that the ligands and ruthenium(II) complexes studied here have therapeutic potentials and were subjected to study their anticancer activity. A number of coumarin derivatives have shown considerable anticancer activity against a number of cell lines. All the 3-acetyl-7-methoxy-coumarin-4(N)-substituted thiosemicarbazone ligands, metal precursor [RuHClCO(PPh3)3] and their new cyclometallated Ru(II) complexes were assessed for their cytotoxicity with two human derived cell lines namely human lung carcinoma (A549) and human breast cancer cells (MCF-7) by using MTT assay. For comparison purpose, cisplatin was used as a positive control under identical conditions.
(§2) Cytotoxic activity of the compounds was tested with human lung cancer cell lines A549, human breast cancer cell lines MCF-7 and human normal keratinocyte cells (HaCaT) by using MTT assay, which was done according to the earlier literature methods[77] and IC50 values obtained from nonlinear regression using GraphPad Prism 5.[78] The LDH release[79] and NO release[80] assays of the compounds was evaluated by the earlier reported methods.

[2] = system: human lung carcinoma cancer cell line A549; test: MTT cytotoxicity assay; format: cell-based; conditions: MTT, 48 h; read-out: IC50 values A549
Description: as §1, §2

[3] = system: human normal keratinocyte cells (HaCaT); test: MTT cytotoxicity assay; format: cell-based; conditions: MTT, 48 h, normal cells; read-out: IC50 values HaCaT
Method: In order to investigate the selectivity of the compounds for cancer cells rather than normal cell lines, the compounds were also screened for their anticancer activity on the human normal keratinocyte cells (HaCaT).
as §2

S. aureus = test: In vitro antibacterial assay (zone of inhibition, MIC); format: cell-based, Staphylococcus aureus; conditions: S. aureus
Method: (§3) The free ligands and their cyclometallated ruthenium(II) carbonyl complexes were screened for their in vitro antimicrobial activity against certain pathogenic bacterial and fungal species at three different concentrations using disc diffusion method.
(§4) Antimicrobial activities of [RuHClCO(PPh3)3], ligands H2L^1–4 and new organometallic Ru(II) complexes (1–4) were evaluated by agar well diffusion method[76] as reported, by taking Staphylococcus aureus, Streptococcus pneumonie, Pseudomonas aeruginosa, Salmonella paratyphi and fungus such as Candida albicans, Trichophyton rubrum, Aspergillus niger, Aspergillus fumigatus and Candida tropicalis. The above said all test organisms were obtained from the MTCC, Chandigarh, India and Microbiological laboratory, Coimbatore, Tamil Nadu, India. The antimicrobial activity of the test compounds was checked with various concentrations (25 μg ml^−1, 50 μg ml^−1 and 100 μg ml^−1) against all the test pathogens. Gentamicin and ketoconazole were used as positive controls to study the antibacterial and antifungal activities respectively. Each experiment was performed in triplicate and the results are represented as average zone of inhibition and minimum inhibitory concentration of all the test pathogens.

S. pneumonie = test: as above; format: cell-based, Streptococcus pneumonie; conditions: S. pneumonie
Method: as §3, §4

P. aeruginosa = test: as above; format: cell-based, Pseudomonas aeruginosa; conditions: P. aeruginosa
Method: as §3, §4

S. paratyphi = test: as above; format: cell-based, Salmonella paratyphi
Description: The free ligands and their cyclometallated ruthenium(II) carbonyl complexes were screened for their in vitro antimicrobial activity against certain pathogenic bacterial and fungal species at three different concentrations using disc diffusion method. […] Tested complexes had better antimicrobial activity than the ligands against all pathogens. This may be explained by Tweedy's chelation theory.[61] Coordination of ligands reduce the polarity of the metal ion essentially by partial sharing of its positive charge with the donor groups within the chelate ring system formed during the coordination and leading to the increase in lipophilic nature of the central metal atom, which favours the effective permeation through the lipid layer of microorganism.[61,62] […] When tested against T. rubrum, the activity of the complexes in the order of 3 > 2 > 1 > 4. In antibacterial studies, the complex 3 was effective against S. aureus followed by complex 2, 1 and 4 and in the case of S. pneumonie the activity of the complexes follows the order of 3 > 1 > 4 > 2. […] When tested against S. paratyphi complex 1 stood out as good followed by the complexes 4, 3 and 2 respectively.
as §4

Aspergillus fumigatus = test: In vitro antifungal assay (zone of inhibition, MIC); format: cell-based
Method: as §3, §4

Aspergillus niger = test: as above; format: cell-based
Method: as §3, §4

Candida tropicalis = test: as above; format: cell-based
Method: as §3, §4

Trichophyton rubrum = test: as above; format: cell-based
Method: as §3, §4

C. albicans = test: as above; format: cell-based, Candida albicans; conditions: C. albicans
Method: as §3, §4

[4] = Total antioxidant capacity, phosphomolybdate method
Method: (§5) It has been reported that free radical species such as reactive oxygen species (ROS), are involved in the pathogenesis of various diseases through effects on DNA directly and by acting as a tumour promoter.[59,60] The DPPH free radical scavenging activity of the ligands and complexes were studied and quantitatively antioxidant properties were determined by using phosphomolybdate method. We knew that the inhibitory effects of the tested compounds on DPPH radical are concentration dependent and the suppression ratio increases with increasing sample concentrations (Fig. S36 ^†). […] In the phosphomolybdenum assay, the antioxidant activity is expressed as the number of equivalents of ascorbic acid (Table 6). The total antioxidant activity of the compounds is in the following order complex 3 > complex 2 > complex 1 > complex 4 > H2L^3 > H2L^2 > H2L^1 > H2L^4 > ascorbic acid > [RuHClCO(PPh3)3]. The results concluded that the metal complexes are better antioxidants than their parent ligands which may be due to the chelation of the ligands to metal ion.[35] The radical scavenging ability of the new complexes is greater than that of few other reported ruthenium complexes, containing Schiff base ligands.[9]
(§6) The DPPH radical scavenging activity of the compounds have been carried out according to the reported method.[74] In this study, various concentrations of the experimental standard ascorbic acid, [RuHCl(CO)(PPh3)3], ligands (20–100 μM) and complexes (2–10 μM) in methanol were taken. Total antioxidant activity of the compounds was determined by the phosphomolybdate method.[75]

[5] = DPPH radical scavenging assay; conditions: in methanol
Method: as §5, §6

For `N.N.[Cl][Pt][Cl]` [Cisplatin, reference compound], the IC50 [1] was 16.79 ± 0.08 µM, the IC50 [2] was 15.1 ± 0.05 µM and the IC50 [3] was over 40 µM.
Work on `CNC(C)C1CCC(N)C(OC2C(N)CC(N)C(OC3OCC(C)(O)C(NC)C3O)C2O)O1` (stereo not shown) [Gentamicin, reference compound] yielded a zone of inhibition at 25 µg/mL (S. aureus; Staphylococcus aureus, 25 µg/ml) of 20.3 ± 0.43 mm, a zone of inhibition at 25 µg/mL (S. pneumonie; Streptococcus, 25 µg/ml) of 20.3 ± 0.39 mm and a zone of inhibition at 25 µg/mL (P. aeruginosa; Pseudomonas aeruginosa, 25 µg/ml) of 20.2 ± 0.22 mm. It also gave a zone of inhibition at 25 µg/mL (S. paratyphi; Salmonella enterica, 25 µg/ml) of 20.4 ± 0.44 mm.
`CC(=O)N1CCN(c2ccc(OCC3COC(Cn4ccnc4)(c4ccc(Cl)cc4Cl)O3)cc2)CC1` (stereo not shown) [Ketaconazole, reference compound] gave a zone of inhibition at 25 µg/mL (Aspergillus fumigatus; 25 µg/ml) of 23 ± 0.25 mm, a zone of inhibition at 25 µg/mL (Aspergillus niger; 25 µg/ml) of 21.89 ± 0.11 mm and a zone of inhibition at 25 µg/mL (Candida tropicalis; 25 µg/ml) of 19.5 ± 0.23 mm. For the same compound, the zone of inhibition at 25 µg/mL (Trichophyton rubrum; 25 µg/ml) was 24.12 ± 0.16 mm and the zone of inhibition at 25 µg/mL (C. albicans; Candida albicans, 25 µg/ml) was 20.34 ± 0.2 mm.
For `[C-]#[O+].[Cl][RuH].c1ccc(P(c2ccccc2)c2ccccc2)cc1.c1ccc(P(c2ccccc2)c2ccccc2)cc1.c1ccc(P(c2ccccc2)c2ccccc2)cc1` [[RuHClCO(PPh3)3], reference compound], the Total antioxidant capacity [4] was 07.02 ± 0.08 μg ascorbic acid equivalents/ml, the “Minimum inhibitory concentration (MIC); head: IC50 VALUES” (from here on “Minimum inhibitory concentration (MIC)”) (S. aureus) was 35.84 ± 0.37 µM and the Zone of inhibition (S. aureus; 50 µg/ml) was 15.19±0.08 mm. For the same compound, the Zone of inhibition (S. aureus; 100 µg/ml) was 17.67±0.78 mm, the “Minimum inhibitory concentration (MIC)” value (S. pneumonie) was 33.05 ± 0.28 µM and the Zone of inhibition (S. pneumonie; 50 µg/ml) was 14.39±0.34 mm. For the same compound, the Zone of inhibition (S. pneumonie; 100 µg/ml) was 16.44±0.11 mm, the “Minimum inhibitory concentration (MIC)” value (P. aeruginosa) was 30.19 ± 0.53 µM and the Zone of inhibition (P. aeruginosa; 50 µg/ml) was 15.78±0.44 mm. For the same compound, the Zone of inhibition (P. aeruginosa; 100 µg/ml) was 17.89±0.42 mm, the Zone of inhibition (S. paratyphi; 50 µg/ml) was 13.29±0.65 mm and the Zone of inhibition (S. paratyphi; 100 µg/ml) was 17.44±0.55 mm. The “Minimum inhibitory concentration (MIC)” value (Aspergillus fumigatus) was 29.75 ± 0.54 µM, the Zone of inhibition (Aspergillus fumigatus; 50 µg/ml) was 15.58±0.65 mm and the Zone of inhibition (Aspergillus fumigatus; 100 µg/ml) was 18.38±0.65 mm. For the same compound, the “Minimum inhibitory concentration (MIC)” value (Aspergillus niger) was 31.63 ± 0.59 µM, the Zone of inhibition (Aspergillus niger; 50 µg/ml) was 13.19±0.34 mm and the Zone of inhibition (Aspergillus niger; 100 µg/ml) was 15.14±0.31 mm. The “Minimum inhibitory concentration (MIC)” value (Candida tropicalis) was 28.79 ± 0.41 µM, the Zone of inhibition (Candida tropicalis; 50 µg/ml) was 14.78±0.43 mm and the Zone of inhibition (Candida tropicalis; 100 µg/ml) was 18.59±0.41 mm. The “Minimum inhibitory concentration (MIC)” value (Trichophyton rubrum) was 31.76 ± 0.42 µM, the Zone of inhibition (Trichophyton rubrum; 50 µg/ml) was 14.18±0.54 mm and the Zone of inhibition (Trichophyton rubrum; 100 µg/ml) was 17.91±0.24 mm. For the same compound, the “Minimum inhibitory concentration (MIC)” value (C. albicans) was 26.09 ± 0.48 µM, the Zone of inhibition (C. albicans; 50 µg/ml) was 13.29±0.45 mm and the Zone of inhibition (C. albicans; 100 µg/ml) was 16.67±0.11 mm. For the same compound, the IC50 [1] was 20.1 ± 0.18 µM, the IC50 [2] was 16 ± 0.21 µM and the IC50 [3] was over 40 µM.
Compound `O=C1O[C@H]([C@@H](O)CO)C(O)=C1O` [vitamin C, ascorbic acid, reference compound] has an IC50 [5] of 98.7 ± 1.5 µM.
